Key:
[1] = Prodrug stability in human liver S9; assay type: in vitro ADME; conditions: Human Liver S9 (0.5 mg/mL), 2.0 μM, NADPH, 37° C.
Procedure: (§1) The stabilities of prodrugs were evaluated in one or more in vitro systems using a variety of tissue preparations following methods known in the art. The chemical stability of prodrugs in aqueous buffers at pH's of 2.0, 7.4 and 8.0 were also measured. […] Each preparation was incubated with test compound at 37° C. for one hour. Aliquots (50 μL) were removed at 0, 30, and 60 min and quenched with 0.1% trifluoroacetic acid in acetonitrile. Samples were then centrifuged and analyzed by LC/MS/MS (see Example 86 below for method details).

[2] = Prodrug stability in human plasma in vitro; assay type: in vitro ADME; conditions: 2.0 μM, 37° C.
Procedure: as §1

[3] = Caco-2 homogenate S9 stability; assay type: in vitro ADME; conditions: Caco-2 S9 (0.5 mg protein per mL), 5 μM, 37° C.
Procedure: Caco-2 Homogenate S9 Stability: Caco-2 cells were grown for 21 days prior to harvesting. Culture medium was removed and cell monolayers were rinsed and scraped off into ice-cold 10 mM sodium phosphate/0.15 M potassium chloride, pH 7.4. Cells were lysed by sonication at 4° C. using a probe sonicator. Lysed cells were then transferred into 1.5 mL centrifuge vials and centrifuged at 9000 g for 20 min at 4° C. The resulting supernatant (Caco-2 cell homogenate S9 fraction) was aliquoted into 0.5 mL vials and stored at −80° C. until used.
For stability studies, prodrug (5 μM) was incubated in Caco-2 homogenate S9 fraction (0.5 mg protein per mL) for 60 min at 37° C. Concentrations of intact prodrug and released baclofen were determined at zero time and 60 minutes using LC/MS/MS.

[4] = Prodrug stability in rat liver S9; assay type: in vitro ADME; conditions: Rat Liver S9 (0.5 mg/mL), 2.0 μM, NADPH, 37° C.
Procedure: as §1

[5] = Chemical stability of prodrugs in aqueous buffers; assay type: physicochemical
Procedure: as §1

[6] = Prodrug stability in rat plasma in vitro; assay type: in vitro ADME; conditions: 2.0 μM, 37° C.
Procedure: as §1

[7] = test system: pancreatin; experiment: Pancreatin stability; assay type: in vitro ADME, porcine; conditions: 1% (w/v) pancreatin, 5 μM, pH 7.5, 37° C.
Procedure: Pancreatin Stability: Stability studies were conducted by incubating prodrug (5 μM) with 1% (w/v) pancreatin (Sigma, P-1625, from porcine pancreas) in 0.025 M Tris buffer containing 0.5 M NaCl (pH 7.5) at 37° C. for 60 min. The reaction was stopped by addition of 2 volumes of methanol. After centrifugation at 14,000 rpm for […], the supernatant was removed and analyzed by LC/MS/MS.

[8] = test system: Caco-2 cells; experiment: Caco-2 cellular permeability of prodrugs; assay type: in vitro ADME; conditions: Caco-2 monolayer, ratio of Papp values
Procedure: For example, cellular permeability may be evaluated by examining the flux of a prodrug across a cultured polarized cell monolayer (e.g., Caco-2 cells). Caco-2 cells obtained from continuous culture (passage less than 28) were seeded at high density onto Transwell polycarbonate filters. Cells were maintained with DMEM/10% fetal calf serum+0.1 mM nonessential amino acids+2 mM L-Gln, 5% CO2/95% O2, 37° C. until the day of the experiment. Permeability studies were conducted at pH 6.5 apically (in 50 mM MES buffer containing 1 mM CaCl2, 1 mM MgCl2, 150 mM NaCl, 3 mM KCl, 1 mM NaH2PO4, 5 mM glucose) and pH 7.4 basolaterally (in Hanks' balanced salt solution containing 10 mM HEPES) in the presence of efflux pump inhibitors (250 μM MK-571, 250 μM Verapamil, 1 mM Ofloxacin). Inserts were placed in 12 or 24 well plates containing buffer and incubated for 30 min at 37 C.°. Prodrug (200 μM) was added to the apical or basolateral compartment (donor) and concentrations of prodrug and/or released parent drug in the opposite compartment (receiver) were determined at intervals over 1 hour using LC/MS/MS. Values of apparent permeability (Papp) were calculated using the equation: Papp=Vr(dC/dt)//(ACo)
Here Vr is the volume of the receiver compartment in mL; dC/dt is the total flux of prodrug and parent drug (μM/s), determined from the slope of the plot of concentration in the receiver compartment versus time; Co is the initial concentration of prodrug in μM; A is the surface area of the membrane in cm^2.

[9] = animal models; cited from earlier work

With CC(C)C(=O)O[C@H](OC(=O)NC[C@H](CC(=O)[O-])c1ccc(Cl)cc1)C(C)C.[Na+] [(100), Sodium 4-{[(1R)-Isobutanoyloxyisobutoxy]carbonylamino}-(3R)-(4-chlorophenyl)-butanoate] the “% of Prodrug Remaining after 60 min” value [1] was 1%, the “% of Baclofen Released after 60 min” value [2] was 3% and the “% of Prodrug Remaining after 60 min” value [3] was 7%. The “% of Prodrug Remaining after 60 min” value [4] was 3%, the “% of Baclofen Released after 60 min” value ([5]; aqueous buffer pH 2.0, 37° C.) was 0% and the “% of Baclofen Released after 60 min” value ([5]; aqueous buffer pH 7.4, 37° C.) was 0%. The “% of Baclofen Released after 60 min” value ([5]; aqueous buffer pH 8.0, 37° C.) was 0% and the “% of Prodrug Remaining after 60 min” value [6] was 9%.

In the case of O=C([O-])C[C@@H](CNC(=O)OCOC(=O)CCc1ccccc1)c1ccc(Cl)cc1.[Na+] [(62), Sodium 4-[(3-Phenylpropionovloxymethoxy)carbonylamino]-(3R)-(4-chlorophenyl)-butanoate], the “% of Prodrug Remaining after 60 min” value [1] was 0%, the “% of Baclofen Released after 60 min” value [2] was 2% and the “% of Prodrug Remaining after 60 min” value [3] was 1%. For the same molecule, the “% of Prodrug Remaining after 60 min” value [4] was 2%, the “% of Baclofen Released after 60 min” value ([5]; aqueous buffer pH 2.0, 37° C.) was 0% and the “% of Baclofen Released after 60 min” value ([5]; aqueous buffer pH 7.4, 37° C.) was 2%. For the same molecule, the “% of Baclofen Released after 60 min” value ([5]; aqueous buffer pH 8.0, 37° C.) was 8%, the “% of Prodrug Remaining after 60 min” value [7] was 1% and the “% of Prodrug Remaining after 60 min” value [6] was 5%.

In the case of CCCC(=O)OCOC(=O)NC[C@H](CC(=O)[O-])c1ccc(Cl)cc1.[Na+] [(16), Sodium 4-[(Butanoyloxymethoxy)carbonylamino]-(3R)-(4-chlorophenyl)-butanoate], the “% of Baclofen Released after 60 min” value [1] was 100%, the “% of Prodrug Remaining after 60 min” value [1] was 1% and the “% of Baclofen Released after 60 min” value [2] was 20%. For the same molecule, the “% of Prodrug Remaining after 60 min” value [2] was 62%, the “% of Baclofen Released after 60 min” value [3] was 100% and the “% of Prodrug Remaining after 60 min” value [3] was 1%. The “% of Baclofen Released after 60 min” value [4] was 100%, the “% of Prodrug Remaining after 60 min” value [4] was 1% and the “% of Baclofen Released after 60 min” value ([5]; aqueous buffer pH 2.0, 37° C.) was 0%. The “% of Prodrug Remaining after 60 min” value ([5]; aqueous buffer pH 2.0, 37° C.) was 100%, the “% of Baclofen Released after 60 min” value ([5]; aqueous buffer pH 7.4, 37° C.) was 0% and the “% of Prodrug Remaining after 60 min” value ([5]; aqueous buffer pH 7.4, 37° C.) was 100%. For the same molecule, the “% of Baclofen Released after 60 min” value ([5]; aqueous buffer pH 8.0, 37° C.) was 0%, the “% of Prodrug Remaining after 60 min” value ([5]; aqueous buffer pH 8.0, 37° C.) was 100% and the “Ratio A-B/B-A” value [8] was 5.1. The “% of Prodrug Remaining after 60 min” value [7] was 1%, the “% of Baclofen Released after 60 min” value [6] was 40% and the “% of Prodrug Remaining after 60 min” value [6] was 54%.

For CCCC(=O)O[C@H](CCC)OC(=O)NC[C@H](CC(=O)[O-])c1ccc(Cl)cc1.[Na+] [(86), Sodium 4-{[(1S)-Butanoyloxybutoxy]carbonylamino}-(3R)-(4-chlorophenyl)-butanoate], the “% of Prodrug Remaining after 60 min” value [1] was 2%, the “% of Prodrug Remaining after 60 min” value [3] was 2% and the “% of Prodrug Remaining after 60 min” value [4] was 2%. The “% of Baclofen Released after 60 min” value ([5]; aqueous buffer pH 2.0, 37° C.) was 0%, the “% of Baclofen Released after 60 min” value ([5]; aqueous buffer pH 7.4, 37° C.) was 1% and the “% of Baclofen Released after 60 min” value ([5]; aqueous buffer pH 8.0, 37° C.) was 2%. The “% of Prodrug Remaining after 60 min” value [7] was 4% and the “% of Prodrug Remaining after 60 min” value [6] was 1%.

For CC(C)C(=O)OCOC(=O)NC[C@H](CC(=O)[O-])c1ccc(Cl)cc1.[Na+] [(18), Sodium 4-[(Isobutanoyloxymethoxy)carbonylamino]-(3R)-(4-chlorophenyl)-butanoate], the “% of Baclofen Released after 60 min” value [1] was 100%, the “% of Prodrug Remaining after 60 min” value [1] was 2% and the “% of Baclofen Released after 60 min” value [2] was 27%. The “% of Prodrug Remaining after 60 min” value [2] was 61%, the “% of Baclofen Released after 60 min” value [3] was 100% and the “% of Prodrug Remaining after 60 min” value [3] was 1%. For the same molecule, the “% of Baclofen Released after 60 min” value [4] was 100%, the “% of Prodrug Remaining after 60 min” value [4] was 1% and the “% of Baclofen Released after 60 min” value ([5]; aqueous buffer pH 2.0, 37° C.) was 0%. For the same molecule, the “% of Prodrug Remaining after 60 min” value ([5]; aqueous buffer pH 2.0, 37° C.) was 105%, the “% of Baclofen Released after 60 min” value ([5]; aqueous buffer pH 7.4, 37° C.) was 0% and the “% of Prodrug Remaining after 60 min” value ([5]; aqueous buffer pH 7.4, 37° C.) was 95%. The “% of Baclofen Released after 60 min” value ([5]; aqueous buffer pH 8.0, 37° C.) was 0%, the “% of Prodrug Remaining after 60 min” value ([5]; aqueous buffer pH 8.0, 37° C.) was 102% and the “Ratio A-B/B-A” value [8] was 1.1. The “% of Prodrug Remaining after 60 min” value [7] was 2%, the “% of Baclofen Released after 60 min” value [6] was 60% and the “% of Prodrug Remaining after 60 min” value [6] was 39%.

For CC(C)C(=O)OC(OC(=O)NC[C@H](CC(=O)[O-])c1ccc(Cl)cc1)C(C)C.[Na+] (stereo partly drawn) [(25), Sodium 4-[(1-Isobutanoyloxyisobutoxy)carbonylamino]-(3R)-(4-chlorophenyl)-butanoate], the “% of Prodrug Remaining after 60 min” value [1] was 4%, the “% of Baclofen Released after 60 min” value [2] was 4% and the “% of Prodrug Remaining after 60 min” value [3] was 2%. For the same molecule, the “% of Prodrug Remaining after 60 min” value [4] was 1%, the “% of Baclofen Released after 60 min” value ([5]; aqueous buffer pH 2.0, 37° C.) was 0% and the “% of Baclofen Released after 60 min” value ([5]; aqueous buffer pH 7.4, 37° C.) was 0%. The “% of Baclofen Released after 60 min” value ([5]; aqueous buffer pH 8.0, 37° C.) was 0%, the “% of Prodrug Remaining after 60 min” value ([5]; aqueous buffer pH 8.0, 37° C.) was 100% and the “% of Prodrug Remaining after 60 min” value [6] was 5%.

For NCC(CC(=O)O)c1ccc(Cl)cc1 (racemic) [Baclofen, (±)-4-Amino-3-(4-chlorophenyl)butanoic acid], the “absorption following administration into the colon” value [9] is given as “poorly absorbed”.

With CCCC(=O)OC(OC(=O)NC[C@H](CC(=O)[O-])c1ccc(Cl)cc1)C1CCCCC1.[Na+] (stereo partly drawn) [(85), Sodium 4-[(1-Butanoyloxy-1-cyclohexylmethoxy)carbonylamino]-(3R)-(4-chlorophenyl)-butanoate] the “% of Prodrug Remaining after 60 min” value [1] was 2%, the “% of Baclofen Released after 60 min” value [2] was 4% and the “% of Baclofen Released after 60 min” value [3] was 82%. The “% of Prodrug Remaining after 60 min” value [3] was 4%, the “% of Prodrug Remaining after 60 min” value [4] was 2% and the “% of Baclofen Released after 60 min” value ([5]; aqueous buffer pH 2.0, 37° C.) was 0%. For the same molecule, the “% of Baclofen Released after 60 min” value ([5]; aqueous buffer pH 7.4, 37° C.) was 0%, the “% of Baclofen Released after 60 min” value ([5]; aqueous buffer pH 8.0, 37° C.) was 0% and the “% of Prodrug Remaining after 60 min” value [6] was 82%.

For CC(=O)OC(C)OC(=O)NC[C@H](CC(=O)[O-])c1ccc(Cl)cc1.[Na+] (stereo partly drawn) [(30), Sodium 4-[(1-Acetoxyethoxy)carbonylamino]-(3R)-(4-chlorophenyl)-butanoate], the “% of Baclofen Released after 60 min” value [1] was 87%, the “% of Prodrug Remaining after 60 min” value [1] was 7% and the “% of Baclofen Released after 60 min” value [2] was 8%. The “% of Prodrug Remaining after 60 min” value [2] was 85%, the “% of Baclofen Released after 60 min” value [3] was 70% and the “% of Prodrug Remaining after 60 min” value [3] was 24%. For the same molecule, the “% of Baclofen Released after 60 min” value [4] was 85%, the “% of Prodrug Remaining after 60 min” value [4] was 1% and the “% of Baclofen Released after 60 min” value ([5]; aqueous buffer pH 2.0, 37° C.) was 0%. The “% of Prodrug Remaining after 60 min” value ([5]; aqueous buffer pH 2.0, 37° C.) was 100%, the “% of Baclofen Released after 60 min” value ([5]; aqueous buffer pH 7.4, 37° C.) was 1% and the “% of Prodrug Remaining after 60 min” value ([5]; aqueous buffer pH 7.4, 37° C.) was 87%. For the same molecule, the “% of Baclofen Released after 60 min” value ([5]; aqueous buffer pH 8.0, 37° C.) was 3%, the “% of Prodrug Remaining after 60 min” value ([5]; aqueous buffer pH 8.0, 37° C.) was 81% and the “Ratio A-B/B-A” value [8] was 3.8. The “% of Baclofen Released after 60 min” value [7] was 9%, the “% of Baclofen Released after 60 min” value [6] was 42% and the “% of Prodrug Remaining after 60 min” value [6] was 58%.

In the case of CCCC(=O)O[C@H](OC(=O)NC[C@H](CC(=O)[O-])c1ccc(Cl)cc1)C(C)C.[Na+] [(90), Sodium 4-{[(1R)-Butanoyloxyisobutoxy]carbonylamino}-(3R)-(4-chlorophenyl)-butanoate], the “% of Prodrug Remaining after 60 min” value [1] was 1%, the “% of Baclofen Released after 60 min” value [2] was 2% and the “% of Prodrug Remaining after 60 min” value [3] was 5%. The “% of Prodrug Remaining after 60 min” value [4] was 3%, the “% of Baclofen Released after 60 min” value ([5]; aqueous buffer pH 2.0, 37° C.) was 0% and the “% of Baclofen Released after 60 min” value ([5]; aqueous buffer pH 7.4, 37° C.) was 0%. The “% of Baclofen Released after 60 min” value ([5]; aqueous buffer pH 8.0, 37° C.) was 1%, the “% of Prodrug Remaining after 60 min” value ([5]; aqueous buffer pH 8.0, 37° C.) was 93% and the “% of Prodrug Remaining after 60 min” value [7] was 9%. The “% of Prodrug Remaining after 60 min” value [6] was 5%.

Reference: US10385014B2, “Acyloxyalkyl carbamate prodrugs, methods of synthesis and use” (ARBOR PHARMACEUTICALS, LLC, priority 2003, dated 2019)
